Test results taken from article PMC314469, “Protein Interaction Networks by Proteome Peptide Scanning” (PLoS Biology, 2004).

System: Myo5 SH3 domain
Experiment: SPOT analysis of cellulose-bound peptides (WISE), Myo5 SH3 domain (Dataset S4)
Type: binding, Saccharomyces cerevisiae
Conditions: for The normalized value in BLU units: Myo5 SH3 domain
[1] = SPOT analysis of membrane-synthesized peptides probed with Myo5 SH3 domain, normalized value
[2] = SPOT analysis of cellulose-bound 14-mer yeast proteome peptides, normalized value, mean where the peptide was synthesized more than once
[3] = SPOT analysis of membrane-bound peptides, normalized value (see methods)
[4] = SPOT analysis of cellulose-bound peptides probed with Myo5 SH3 domain, normalized value

For KKHDKLHPNYPSVK, the “The normalized value in BLU units (SPOT analysis, Myo5 SH3)” value [1] was 406.8 BLU.

For QFSGLLEPSLPNNM, the “The normalized value in BLU units” value [2] was 84.4 BLU.

In the case of AKLHRTKPVKPLSK, the “The normalized value in BLU units” value [3] is reported as 501.8 BLU.

With KNILKVCPVLPSIL the “The normalized value in BLU units (SPOT analysis, Myo5 SH3)” value [1] was 117.9 BLU.

For RFSSRRAPIAPSGK, the “The normalized value in BLU units” value [2] was 564.4 BLU.

For HFLCLDPPIDPNNL, the “The normalized value in BLU units” value [2] was 122.0 BLU.

In the case of ILQELSLPSRPVMP, the “The normalized value in BLU units (SPOT analysis, Myo5 SH3)” value [4] is reported as 51.9 BLU.

In the case of KTVDKGLPMIPTYV, the “The normalized value in BLU units” value [2] is reported as 76.8 BLU.

With KFFKHLYPAIPILD the “The normalized value in BLU units” value [2] was 217.0 BLU.

In the case of PEWRRPHPNIPDAK, the “The normalized value in BLU units” value [3] is reported as 182.7 BLU.

For IPLPHQPPPLPIYS, the “The normalized value in BLU units (SPOT analysis, Myo5 SH3)” value [4] was 53588.9 BLU.

LGLHKWLPDIPLFE was tested, and the “The normalized value in BLU units” value [3] was 167.8 BLU.

For GLRELFLPGMPGLM, the “The normalized value in BLU units” value [2] was 159.7 BLU.

With FVFFKSLPDLPKPQ the “The normalized value in BLU units (SPOT analysis, Myo5 SH3)” value [1] was 859.9 BLU.

For NLKTKSHPEVPRLD, the “The normalized value in BLU units (SPOT analysis, Myo5 SH3)” value [1] was 362.8 BLU.

For ITSIRGSPSLPKNK, the “The normalized value in BLU units (SPOT analysis, Myo5 SH3)” value [1] was 370.3 BLU.

For VLKGFYSPSAPSYD, the “The normalized value in BLU units (SPOT analysis, Myo5 SH3)” value [4] was 290.1 BLU.

In the case of IEVPMEYPFKPPKM, the “The normalized value in BLU units” value [2] is reported as 384.5 BLU.

With IGSPRHAPSRPDSI the “The normalized value in BLU units (SPOT analysis, Myo5 SH3)” value [1] was 193.4 BLU.

RAGNREPPSTPSTL was tested, and the “The normalized value in BLU units” value [3] was 273.8 BLU.

With KFPLMDKPSIPTLR the “The normalized value in BLU units (SPOT analysis, Myo5 SH3)” value [4] was 431.6 BLU.

For VKATKWPPKLPEIQ, the “The normalized value in BLU units (SPOT analysis, Myo5 SH3)” value [1] was 57.4 BLU.

SFVGFPKPLLPRNH was tested, and the “The normalized value in BLU units (SPOT analysis, Myo5 SH3)” value [4] was 205.1 BLU.

In the case of LITDKEYPVRPAYT, the “The normalized value in BLU units (SPOT analysis, Myo5 SH3)” value [1] is reported as 136.3 BLU.

In the case of WEALKSVPIPPRKN, the “The normalized value in BLU units” value [3] is reported as 379.0 BLU.

For DEALRYCPDAPIVL, the “The normalized value in BLU units” value [3] was 127.1 BLU.

With APPALSAPSVPPVP the “The normalized value in BLU units” value [2] was 6575.3 BLU.

In the case of DETRKLTPCSPGDD, the “The normalized value in BLU units” value [3] is reported as 230.8 BLU.

DVNHRYPPMAPTTV was tested, and the “The normalized value in BLU units (SPOT analysis, Myo5 SH3)” value [1] was 175.5 BLU.

In the case of KLYYRHRPQKPVRT, the “The normalized value in BLU units” value [3] is reported as 915.7 BLU.

In the case of FSTKKSKPIRPFVF, the “The normalized value in BLU units (SPOT analysis, Myo5 SH3)” value [1] is reported as 378.5 BLU.

With KLKIKILPEQPQLE the “The normalized value in BLU units” value [3] was 261.3 BLU.

In the case of IESLREIPYGPDFD, the “The normalized value in BLU units (SPOT analysis, Myo5 SH3)” value [1] is reported as 115.6 BLU.

With LAIRLCWPPAPVTL the “The normalized value in BLU units” value [2] was 154.7 BLU.

For NAQLRKTPLEPGLE, the “The normalized value in BLU units” value [2] was 175.9 BLU.

With EPIAHLFPPGPKNP the “The normalized value in BLU units (SPOT analysis, Myo5 SH3)” value [4] was 356.3 BLU.

For YTYSRNEPVIPTKP, the “The normalized value in BLU units (SPOT analysis, Myo5 SH3)” value [1] was 209.5 BLU.

NAPPRIFPKAPIYG was tested, and the “The normalized value in BLU units” value [3] was 168.1 BLU.

With DLQKKYEPSPPATH the “The normalized value in BLU units” value [3] was 224.6 BLU.

For HRLFKCTPGLPKLW, the “The normalized value in BLU units” value [3] was 266.0 BLU.

In the case of LMSLKRFPQLPSNT, the “The normalized value in BLU units (SPOT analysis, Myo5 SH3)” value [1] is reported as 347.7 BLU.

For VLGPKYDPKCPEEH, the “The normalized value in BLU units (SPOT analysis, Myo5 SH3)” value [1] was 156.7 BLU.

With FEESMNNPLPPLPP the “The normalized value in BLU units” value [2] was 168.9 BLU.

For SNFKKRDPGLPDFQ, the “The normalized value in BLU units (SPOT analysis, Myo5 SH3)” value [1] was 160.6 BLU.

In the case of KSYRKADPTNPQGW, the “The normalized value in BLU units” value [2] is reported as 103.0 BLU.

In the case of SLDNFYNPLGPEDR, the “The normalized value in BLU units (SPOT analysis, Myo5 SH3)” value [4] is reported as 142.7 BLU.

In the case of SATGWLKPAVPIQW, the “The normalized value in BLU units (SPOT analysis, Myo5 SH3)” value [4] is reported as 94.6 BLU.

In the case of IMDAKFHPFKPQLF, the “The normalized value in BLU units” value [2] is reported as 246.2 BLU.

IFFKLIHPFLPILH was tested, and the “The normalized value in BLU units” value [2] was 503.3 BLU.

In the case of EYFPREYPKDPVSE, the “The normalized value in BLU units” value [3] is reported as 272.2 BLU.

FRPHRLAPSAPATK was tested, and the “The normalized value in BLU units” value [3] was 1405.4 BLU.

KIIKKCSPSVPKEE was tested, and the “The normalized value in BLU units” value [3] was 242.5 BLU.

AAMNLETPSNPDSA was tested, and the “The normalized value in BLU units” value [2] was 84.9 BLU.

For MSWCKERPECPLCR, the “The normalized value in BLU units” value [2] was 268.5 BLU.

KMSAKNTPKHPVDI was tested, and the “The normalized value in BLU units (SPOT analysis, Myo5 SH3)” value [1] was 307.2 BLU.

With FENLLMEPNLPFFT the “The normalized value in BLU units (SPOT analysis, Myo5 SH3)” value [4] was 202.2 BLU.

KWTIMPHPNRPNAA was tested, and the “The normalized value in BLU units” value [2] was 428.7 BLU.

KQKKKPTPTRPYNY was tested, and the “The normalized value in BLU units” value [3] was 516.2 BLU.

For KRKAKAPPPPPPPP, the “The normalized value in BLU units (SPOT analysis, Myo5 SH3)” value [1] was 4025.3 BLU.

GEMVKLTPKNPFYK was tested, and the “The normalized value in BLU units (SPOT analysis, Myo5 SH3)” value [1] was 408.3 BLU.

KDKARGNPEKPPYW was tested, and the “The normalized value in BLU units” value [3] was 59.9 BLU.

For DLKKKYAPDPPITH, the “The normalized value in BLU units” value [3] was 185.5 BLU.

KAIVWRLPKMPKIK was tested, and the “The normalized value in BLU units” value [2] was 515.4 BLU.

For VFVEKSKPTYPGTE, the “The normalized value in BLU units (SPOT analysis, Myo5 SH3)” value [1] was 96.4 BLU.

MQSKKEDPNRPKNL was tested, and the “The normalized value in BLU units” value [3] was 153.6 BLU.

In the case of ELDTKTIPELPFCM, the “The normalized value in BLU units” value [3] is reported as 53.2 BLU.

With AVVYKLKPYIPSLS the “The normalized value in BLU units” value [3] was 112.0 BLU.

For TLHELGVPITPIAF, the “The normalized value in BLU units” value [2] was 118.6 BLU.

KASSMPAPPPPPPP was tested, and the “The normalized value in BLU units” value [2] was 10514.9 BLU.

PRSKKKKPAPPTLL was tested, and the “The normalized value in BLU units” value [3] was 412.9 BLU.

With NEHGMNAPSVPEFI the “The normalized value in BLU units” value [2] was 344.1 BLU.

In the case of QNGLRFNPDVPKLW, the “The normalized value in BLU units (SPOT analysis, Myo5 SH3)” value [1] is reported as 260.1 BLU.
